PubChem BioAssay (NCI)
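A five-concentration, 48-hour dose response in 96-well plates underlies each endpoint, interpolated linearly between surrounding concentrations. TGI denotes the concentration required for complete inhibition of growth.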

Experiments:
Assay in all cases: inhibition of tumour cell growth, NCI panel, 48 h
786-0 renal = tested on: 786-0 renal
A498 renal = tested on: A498 renal
A549 NSCLC = tested on: A549 NSCLC
ACHN renal = tested on: ACHN renal
BT-549 breast = tested on: BT-549 breast
CAKI-1 renal = tested on: CAKI-1 renal
CCRF-CEM leukemia = tested on: CCRF-CEM leukemia
COLO 205 colon = tested on: COLO 205 colon
DU-145 prostate = tested on: DU-145 prostate
EKVX NSCLC = tested on: EKVX NSCLC
HCT-116 colon = tested on: HCT-116 colon
HCT-15 colon = tested on: HCT-15 colon
HL-60(TB) leukemia = tested on: HL-60(TB) leukemia
HOP-62 NSCLC = tested on: HOP-62 NSCLC
HOP-92 NSCLC = tested on: HOP-92 NSCLC
HS 578T breast = tested on: HS 578T breast
HT29 colon = tested on: HT29 colon
IGROV1 ovarian = tested on: IGROV1 ovarian
K-562 leukemia = tested on: K-562 leukemia
KM12 colon = tested on: KM12 colon
LOX IMVI melanoma = tested on: LOX IMVI melanoma
M14 melanoma = tested on: M14 melanoma
MALME-3M melanoma = tested on: MALME-3M melanoma
MCF7 breast = tested on: MCF7 breast
MDA-MB-231 breast = tested on: MDA-MB-231 breast
MDA-MB-435 = tested on: MDA-MB-435
MDA-N = tested on: MDA-N
MOLT-4 leukemia = tested on: MOLT-4 leukemia
NCI-H23 lung = tested on: NCI-H23 lung
NCI-H460 lung = tested on: NCI-H460 lung
NCI-H522 lung = tested on: NCI-H522 lung
NCI/ADR-RES ovarian = tested on: NCI/ADR-RES ovarian
OVCAR-3 ovarian = tested on: OVCAR-3 ovarian
OVCAR-5 ovarian = tested on: OVCAR-5 ovarian
OVCAR-8 ovarian = tested on: OVCAR-8 ovarian
PC-3 prostate = tested on: PC-3 prostate
RPMI-8226 leukemia = tested on: RPMI-8226 leukemia
RXF 393 renal = tested on: RXF 393 renal
SF-268 CNS = tested on: SF-268 CNS
SF-295 CNS = tested on: SF-295 CNS
SF-539 CNS = tested on: SF-539 CNS
SK-MEL-2 melanoma = tested on: SK-MEL-2 melanoma
SK-MEL-28 melanoma = tested on: SK-MEL-28 melanoma
SK-MEL-5 melanoma = tested on: SK-MEL-5 melanoma
SK-OV-3 ovarian = tested on: SK-OV-3 ovarian
SN12C renal = tested on: SN12C renal
SNB-19 CNS = tested on: SNB-19 CNS
SNB-75 CNS = tested on: SNB-75 CNS
SR leukemia = tested on: SR leukemia
SW-620 colon = tested on: SW-620 colon
T-47D breast = tested on: T-47D breast
TK-10 renal = tested on: TK-10 renal
U251 CNS = tested on: U251 CNS
UACC-257 melanoma = tested on: UACC-257 melanoma
UACC-62 melanoma = tested on: UACC-62 melanoma
UO-31 renal = tested on: UO-31 renal
OVCAR-4 ovarian = tested on: OVCAR-4 ovarian

For `COc1cc(O)cc2oc(-c3ccc(O)cc3)cc(=O)c12`, which TGI (786-0 renal) is on record?
Its TGI is greater than 100 µM.

And the TGI (A498 renal)?
Its TGI is 78.3 µM.

And the TGI (A549 NSCLC)?
Its TGI is greater than 100 µM.

And the TGI (ACHN renal)?
Its TGI is greater than 100 µM.

And the TGI (BT-549 breast)?
Its TGI is greater than 100 µM.

And the TGI (CAKI-1 renal)?
Its TGI is greater than 100 µM.

And the TGI (CCRF-CEM leukemia)?
Its TGI is greater than 100 µM.

And the TGI (COLO 205 colon)?
The TGI was greater than 100 µM.

What about the TGI (DU-145 prostate) of the same molecule?
Its TGI is greater than 100 µM.

And the TGI (EKVX NSCLC)?
Its TGI is greater than 100 µM.

And the TGI (HCT-116 colon)?
Its TGI is greater than 100 µM.

What about the TGI (HCT-15 colon) of the same molecule?
Its TGI is greater than 100 µM.

And the TGI (HL-60(TB) leukemia)?
Its TGI is greater than 100 µM.

And the TGI (HOP-62 NSCLC)?
Its TGI is greater than 100 µM.

What about the TGI (HOP-92 NSCLC) of the same molecule?
Its TGI is greater than 100 µM.

And the TGI (HS 578T breast)?
The TGI was greater than 100 µM.

And the TGI (HT29 colon)?
The TGI was greater than 100 µM.

What about the TGI (IGROV1 ovarian) of the same molecule?
Its TGI is greater than 100 µM.

What about the TGI (K-562 leukemia) of the same molecule?
The TGI was greater than 100 µM.

What about the TGI (KM12 colon) of the same molecule?
Its TGI is greater than 100 µM.

And the TGI (LOX IMVI melanoma)?
Its TGI is greater than 100 µM.

And the TGI (M14 melanoma)?
The TGI was greater than 100 µM.

And the TGI (MALME-3M melanoma)?
The TGI was greater than 100 µM.

What about the TGI (MCF7 breast) of the same molecule?
Its TGI is greater than 100 µM.

And the TGI (MDA-MB-231 breast)?
The TGI was greater than 100 µM.

And the TGI (MDA-MB-435)?
The TGI was greater than 100 µM.

And the TGI (MDA-N)?
The TGI was greater than 100 µM.

And the TGI (MOLT-4 leukemia)?
Its TGI is greater than 100 µM.

What about the TGI (NCI-H23 lung) of the same molecule?
The TGI was greater than 100 µM.

And the TGI (NCI-H460 lung)?
The TGI was greater than 100 µM.

What about the TGI (NCI-H522 lung) of the same molecule?
The TGI was greater than 100 µM.

And the TGI (NCI/ADR-RES ovarian)?
The TGI was greater than 100 µM.

What about the TGI (OVCAR-3 ovarian) of the same molecule?
The TGI was greater than 100 µM.

What about the TGI (OVCAR-5 ovarian) of the same molecule?
The TGI was greater than 100 µM.

What about the TGI (OVCAR-8 ovarian) of the same molecule?
The TGI was greater than 100 µM.

What about the TGI (PC-3 prostate) of the same molecule?
The TGI was greater than 100 µM.

And the TGI (RPMI-8226 leukemia)?
The TGI was greater than 100 µM.

And the TGI (RXF 393 renal)?
Its TGI is greater than 100 µM.

What about the TGI (SF-268 CNS) of the same molecule?
Its TGI is greater than 100 µM.

And the TGI (SF-295 CNS)?
Its TGI is greater than 100 µM.

What about the TGI (SF-539 CNS) of the same molecule?
Its TGI is greater than 100 µM.

And the TGI (SK-MEL-2 melanoma)?
Its TGI is greater than 100 µM.

And the TGI (SK-MEL-28 melanoma)?
The TGI was greater than 100 µM.

And the TGI (SK-MEL-5 melanoma)?
The TGI was greater than 100 µM.

What about the TGI (SK-OV-3 ovarian) of the same molecule?
The TGI was greater than 100 µM.

What about the TGI (SN12C renal) of the same molecule?
The TGI was greater than 100 µM.

And the TGI (SNB-19 CNS)?
Its TGI is greater than 100 µM.

And the TGI (SNB-75 CNS)?
The TGI was 62.7 µM.

What about the TGI (SR leukemia) of the same molecule?
Its TGI is greater than 100 µM.

What about the TGI (SW-620 colon) of the same molecule?
The TGI was greater than 100 µM.

What about the TGI (T-47D breast) of the same molecule?
The TGI was greater than 100 µM.

What about the TGI (TK-10 renal) of the same molecule?
The TGI was greater than 100 µM.

And the TGI (U251 CNS)?
The TGI was greater than 100 µM.

What about the TGI (UACC-257 melanoma) of the same molecule?
The TGI was greater than 100 µM.

What about the TGI (UACC-62 melanoma) of the same molecule?
Its TGI is greater than 100 µM.

What about the TGI (UO-31 renal) of the same molecule?
The TGI was greater than 100 µM.

For `O=C(c1cccc(F)c1F)N1CCc2c([nH]c3ccccc23)C1c1ccc2c(c1)OCO2` (stereo not drawn), which TGI (786-0 renal) is on record?
Its TGI is greater than 100 µM.

What about the TGI (A498 renal) of the same molecule?
The TGI was greater than 100 µM.

And the TGI (A549 NSCLC)?
Its TGI is 72.5 µM.

And the TGI (ACHN renal)?
Its TGI is greater than 100 µM.

What about the TGI (BT-549 breast) of the same molecule?
Its TGI is greater than 100 µM.

What about the TGI (CAKI-1 renal) of the same molecule?
The TGI was 87.2 µM.

What about the TGI (CCRF-CEM leukemia) of the same molecule?
Its TGI is greater than 100 µM.

And the TGI (COLO 205 colon)?
Its TGI is 12.9 µM.

And the TGI (DU-145 prostate)?
The TGI was greater than 100 µM.

What about the TGI (EKVX NSCLC) of the same molecule?
The TGI was 65.3 µM.

What about the TGI (HCT-116 colon) of the same molecule?
Its TGI is greater than 100 µM.

And the TGI (HCT-15 colon)?
Its TGI is greater than 100 µM.

What about the TGI (HL-60(TB) leukemia) of the same molecule?
The TGI was 18.7 µM.

What about the TGI (HOP-62 NSCLC) of the same molecule?
The TGI was 2.83 µM.

And the TGI (HOP-92 NSCLC)?
The TGI was greater than 100 µM.

And the TGI (HS 578T breast)?
The TGI was greater than 100 µM.

And the TGI (HT29 colon)?
The TGI was greater than 100 µM.

What about the TGI (IGROV1 ovarian) of the same molecule?
Its TGI is greater than 100 µM.

And the TGI (K-562 leukemia)?
Its TGI is greater than 100 µM.

And the TGI (KM12 colon)?
Its TGI is 32.7 µM.

What about the TGI (LOX IMVI melanoma) of the same molecule?
Its TGI is greater than 100 µM.

And the TGI (M14 melanoma)?
Its TGI is 18.4 µM.

What about the TGI (MALME-3M melanoma) of the same molecule?
The TGI was greater than 100 µM.

What about the TGI (MCF7 breast) of the same molecule?
Its TGI is 57.4 µM.

What about the TGI (MDA-MB-231 breast) of the same molecule?
Its TGI is 74.5 µM.

And the TGI (MDA-MB-435)?
Its TGI is 6.09 µM.

What about the TGI (MDA-N) of the same molecule?
The TGI was 7.01 µM.

And the TGI (MOLT-4 leukemia)?
The TGI was greater than 100 µM.

And the TGI (NCI-H23 lung)?
Its TGI is greater than 100 µM.

And the TGI (NCI-H460 lung)?
Its TGI is 29.9 µM.

What about the TGI (NCI-H522 lung) of the same molecule?
The TGI was 60.2 µM.

What about the TGI (NCI/ADR-RES ovarian) of the same molecule?
The TGI was 53 µM.

And the TGI (OVCAR-3 ovarian)?
Its TGI is 5.26 µM.

And the TGI (OVCAR-4 ovarian)?
The TGI was 67.8 µM.

And the TGI (OVCAR-5 ovarian)?
The TGI was greater than 100 µM.

And the TGI (OVCAR-8 ovarian)?
Its TGI is greater than 100 µM.

What about the TGI (PC-3 prostate) of the same molecule?
Its TGI is 39.2 µM.

And the TGI (RPMI-8226 leukemia)?
Its TGI is 48.1 µM.

And the TGI (RXF 393 renal)?
Its TGI is 35.4 µM.

What about the TGI (SF-268 CNS) of the same molecule?
The TGI was greater than 100 µM.

What about the TGI (SF-295 CNS) of the same molecule?
The TGI was 26.3 µM.

And the TGI (SF-539 CNS)?
Its TGI is 21.4 µM.

What about the TGI (SK-MEL-2 melanoma) of the same molecule?
Its TGI is 16.5 µM.

What about the TGI (SK-MEL-28 melanoma) of the same molecule?
Its TGI is greater than 100 µM.

What about the TGI (SK-MEL-5 melanoma) of the same molecule?
Its TGI is 13.4 µM.

And the TGI (SK-OV-3 ovarian)?
Its TGI is 51.9 µM.

What about the TGI (SN12C renal) of the same molecule?
Its TGI is 91.1 µM.

And the TGI (SNB-19 CNS)?
The TGI was 61.4 µM.

And the TGI (SNB-75 CNS)?
Its TGI is 22.2 µM.

And the TGI (SR leukemia)?
Its TGI is 21.3 µM.

What about the TGI (SW-620 colon) of the same molecule?
The TGI was greater than 100 µM.

What about the TGI (T-47D breast) of the same molecule?
Its TGI is greater than 100 µM.

What about the TGI (TK-10 renal) of the same molecule?
Its TGI is greater than 100 µM.

And the TGI (U251 CNS)?
Its TGI is greater than 100 µM.

And the TGI (UACC-257 melanoma)?
The TGI was 60.4 µM.

And the TGI (UACC-62 melanoma)?
Its TGI is 48.8 µM.

And the TGI (UO-31 renal)?
Its TGI is 47.7 µM.
